From US9814696B2, “Use of coumarin derivatives for the preparation of drugs for treating skin diseases” (UNIVERSITE PIERRE ET MARIE CURIE (PARIS 6), priority 2011, dated 2017)
Read-outs that look alike come from different tables or passages of the source.

What was measured:
[1] = tested on: keratinocytes from a Netherton syndrome patient (NSK); assay: Expression of pro-allergic and inflammatory molecules (indirect KLK5 activity) in Netherton syndrome patient keratinocytes; type: cell-based, human; conditions: 1 μM, 72 h, relative to HPRT
Protocol: 250,000 keratinocytes from a Netherton syndrome patient (NSK) were seeded in 6 well plates in 2 mL of medium made of: (a) half of complete Green medium: (Dulbecco's Modified Eagle Media) 60%; Ham's F12 30%; FCS 10%; adenin […]; insulin 5 μg/mL; hydrocortisone 0.4 μg/mL; cholera toxin 10 nM; triiodothyronin 2 nM; human recombinant EGF 10 ng/mL; penicillin G/streptomycin 100 U/mL; (b) half of a basal medium (Epilife—Cascade Biologics).
When confluent, cells were washed 5 times with PBS and 2 mL of complete Green medium without FCS (fetal calf serum) were added per well.
Inhibitors were added in the culture medium 24 h after medium renewal.
350 μL of RLT lysis buffer (Mini Kit QIAGEN)+β-mercapto-ethanol (0.1%) were added per well to extract total RNA. The cell lysate was kept at −80° C. before RNA extraction (Mini Kit QIAGEN).
In this in cellulo test, KLK5 activity was evaluated by an indirect method. Indeed KLK5 induces TSLP (thymic stromal lymphopoietin), TNFα (tumor necrosis factor alpha) and IL-8 (interleukin 8) expression. If KLK5 activity is inhibited, the expression of these cytokines will be reduced.
The relative amount of TSLP, TNFα and IL-8 transcripts [relative to HPRT (hypoxanthine phosphoribosyltransferase 1) housekeeping gene] was compared between cells treated or not treated with the inhibitors. The ratio <<treated/not treated>> relative to housekeeping gene reflects KLK5 inhibition.
Their expression had also been studied even if their mechanism of induction is not known yet.
The effect of LP73 and CFL33 on the expression of the described pro-allergic and inflammatory cytokines was analyzed on keratinocytes from two different NS patients. Each experiment was performed twice (FIG. 4).

KLK5 = molecular target: T1, KLK5 (Homo sapiens, UniProt Q9Y337); assay: KLK5 enzyme inhibition assay, fluorogenic substrate Boc-Val-Pro-Arg-AMC; type: biochemical; conditions: for IC50: 37° C., 15 min of incubation, pH 8
T1 sequence (Q9Y337 23-293): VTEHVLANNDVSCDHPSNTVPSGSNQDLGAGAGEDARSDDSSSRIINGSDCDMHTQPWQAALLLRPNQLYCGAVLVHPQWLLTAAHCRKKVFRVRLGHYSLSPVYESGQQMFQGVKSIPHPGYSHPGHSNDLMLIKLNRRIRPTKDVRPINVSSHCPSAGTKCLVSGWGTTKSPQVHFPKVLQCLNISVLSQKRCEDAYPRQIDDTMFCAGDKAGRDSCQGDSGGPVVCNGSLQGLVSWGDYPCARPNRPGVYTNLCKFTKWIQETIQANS
Protocol: (§1) Kallikreins KLK5, KLK7 and KLK14 activities were determined by monitoring the hydrolysis of the appropriate fluorogenic substrate (λexc=355, λem=460 nm) for 15 min at 37° C. in the presence of the untreated kallikrein (control) or kallikrein that had been incubated with a test compound. Substrate and compounds were previously dissolved in DMSO, with the final solvent concentration kept constant at 2% (v/v) (KLK 5 and 14), and 4% (v/v) (KLK7). The composition of the activity buffers (pH 8.0) was 100 mM Tris-HCl, 150 mM NaCl, 0.01% (v/v) Tween 20 for the KLK5 assay, and 100 mM Tris-HCl, 1M NaCl, 0.01% (v/v) Tween 20 in the KLK 7 and 14 assays. The final concentrations were 0.6 nM (KLK5) and 100 μM (Boc-Val-Pro-Arg-AMC) (KLK5 assay), 8 nM (KLK7) and 40 μM (Suc-Leu-Leu-Val-Tyr-AMC, AMC: 7-amino-4-methyl-coumarin) (KLK7 assay), and 0.17 nM (KLK14) and 10 μM (Boc-Val-Pro-Arg-AMC) (KLK14 assay). Using the appropriate substrate, the coumarinic compounds (0.01-100 μM) were tested in duplicate for each inhibitor concentration to detect their inhibitory potential. The enzyme and the inhibitors were incubated for 15 min before the determination of the enzyme activity. Initial rates determined in control experiments (V0) were considered to be 100% of the peptidase activity; initial rates below 100% were considered to be inhibitions. The inhibitory activity of compounds was expressed as IC50 (inhibitor concentrations giving 50% inhibition). The values of IC50 were calculated by fitting the experimental data to the equation: % Inhibition=100×(1−Vi/V0)=100[I]0/(IC50+[I]0), or equation: % Inhibition=100[I]0^nH/(IC50^nH+[I]0^nH),nH is the Hill number.
(§2) The tests were realized at 37° C. after 15 min of incubation at pH 8.

[2] = tested on: normal human keratinocytes; assay: Neutral red uptake (NRU) cytotoxicity test / cell viability; type: cell-based; set-up: cytotoxicity, neutral red uptake test (FIG. 5): dose or concentration left out as unconfirmed; conditions: 48 h, human normal keratinocytes
Description: The NRU cytotoxicity assay procedure is a cell survival/viability chemosensitivity assay based on the ability of viable cells to incorporate and bind neutral red (NR), a supravital dye. NR is a weak cationic dye that readily penetrates cell membranes by non-ionic diffusion and accumulates intracellularly in lysosomes. Alterations of the cell surface or the sensitive lysosomal membrane lead to lysosomal fragility and other changes that gradually become irreversible. Such changes caused by the action of xenobiotics result in a decreased uptake and binding of NR. It is thus possible to distinguish between viable, damaged, or dead cells, which is the basis of this assay. After treatment with the small-molecules inhibitors, NR uptake in cells will be measured by spectrophotometry at 540±10 nm.
Keratinocytes from healthy persons or patients with Netherton syndrome are seeded at the density of 4000 cells in 125 μL of medium per well in 96-well plates.
After seeding, cells are incubated for 48 hours in the following experimental conditions: 37° C.±1° C., 90%±5.0% humidity, and 5%±1% CO2/air. This incubation period allows for cell recovery and adherence and progression to exponential growth phase.
Prepare inhibitors solutions 2-fold more concentrated than desired. Add 125 μL of these solutions to the wells without changing or removing the medium (125 μL).
48 h hours after the beginning of the treatment, carefully remove the medium (containing the tested inhibitor) and rinse the cells very carefully with 250 μL pre-warmed PBS.
Add 250 μL NR medium and incubate (37° C.±1° C., 90%±5% humidity, and 5.0%±1% CO2/air) for 3±0.1 h. NR medium is the culture medium containing 33 μg/mL of NR. After incubation, remove the NR medium, and carefully rinse cells with 250 μL pre-warmed PBS.
Measure the absorption (within 60 minutes after adding NR Desorb solution) of the resulting colored solution at 540 nm±10 nm in a microtiter plate reader (spectrophotometer), using the blank as a reference.
A calculation of cell viability expressed as NRU is made for each concentration of the tested inhibitor by using the mean NRU of the three replicate values per each concentration. This value is compared with the mean NRU of all vehicle values. Relative cell viability is then expressed as percent of untreated vehicle control (DMSO).
Normal human keratinocytes were seeded in a 96-well tissue culture plate. At 20% of confluence, molecules were added in the culture medium and incubated for 48 h. Neutral red medium was added to every well for an incubation period of 3 h, then the dye was extracted with acidified ethanol solution. Data (FIGS. 2 and 3) represent the mean cell viability after treatment +/−SD compared to mean viability of cells treated with the vehicle only (DMSO). Data represent the mean of 5 individual experiments.

KLK14 = molecular target: T2, KLK14 (Homo sapiens, UniProt Q9P0G3); assay: KLK14 enzyme inhibition assay, fluorogenic substrate Boc-Val-Pro-Arg-AMC; type: biochemical; conditions: 37° C., 15 min of incubation, pH 8
T2 sequence (Q9P0G3 25-251): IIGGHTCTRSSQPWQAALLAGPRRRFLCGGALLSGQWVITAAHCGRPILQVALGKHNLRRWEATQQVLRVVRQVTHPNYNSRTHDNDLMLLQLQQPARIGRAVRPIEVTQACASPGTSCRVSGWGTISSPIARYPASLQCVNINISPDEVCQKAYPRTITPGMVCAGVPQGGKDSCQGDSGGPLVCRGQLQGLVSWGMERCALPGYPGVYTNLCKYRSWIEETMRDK
Protocol: as §1, §2

KLK7 = KLK7 (Homo sapiens, UniProt P49862); assay: KLK7 enzyme inhibition assay, fluorogenic substrate Suc-Leu-Leu-Val-Tyr-AMC; type: biochemical; conditions: for selective activity against enzyme: KLK7: Table B, among KLK5, KLK7 and KLK14
Chain of KLK7 (P49862 30-253): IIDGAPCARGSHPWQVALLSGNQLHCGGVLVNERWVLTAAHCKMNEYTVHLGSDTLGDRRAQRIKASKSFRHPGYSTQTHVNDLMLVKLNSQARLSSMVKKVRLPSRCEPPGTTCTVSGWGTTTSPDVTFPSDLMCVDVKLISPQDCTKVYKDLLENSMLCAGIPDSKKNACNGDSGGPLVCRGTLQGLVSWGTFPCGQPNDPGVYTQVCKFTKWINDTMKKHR
Protocol: as §1, §2

[3] = tested on: total protease activity of transgenic KLK5 mice skin section; assay: In situ zymography on transgenic KLK5 mice skin section; type: biochemical; conditions: 5 μM
Protocol: FIG. 6 illustrates the effect of JFR9 compound (5 μM) efficacy on the total protease activity of transgenic KLK5 mice skin section, by in situ zymography.
The protease activity is shown with a gradient of fluorescence. The fluorescence intensity represents the cleavage efficiency of a casein substrate coupled to a FITC group.
JFR9 efficacy has been assayed on transgenic KLK5 mice skin section by in situ zymography (FIG. 6). These mice overexpress KLK5 and reproduce the phenotypic characteristics of Netherton syndrome.

[4] = 37° C., 15 min of incubation, pH 8

Question: Which “expression of IL-8” value [1] does the source give for `O=C(Oc1nccc2ccccc12)c1cc2ccccc2oc1=O` [CFL33, Isoquinolin-1-yl 2-oxo-2H-1-benzopyran-3-carboxylate] here?
Answer: significantly inhibited

Question: And the “expression of MDC” value [1]?
Answer: significantly inhibited

Question: And the “expression of TARC” value [1]?
Answer: significantly inhibited

Question: And the IC50 (KLK5; Table A, read-out: IC50 (μM) KLK5)?
Answer: 7 ± 0.4 µM

Question: And the “selective activity against enzyme: KLK5” value (KLK5; Table B, among KLK5, KLK7 and KLK14)?
Answer: KLK5

Question: What about the “cytotoxicity, neutral red uptake test” value ([2]; 1 and 10 μM) of the same compound?
Answer: No noticeable cytotoxicity

Question: What about the inhibition at 100 µM (KLK14; 100 μM) of the same compound?
Answer: 61%

Question: Which inhibition at 50 µM (KLK7; [4]) does the source give for `O=C(Oc1cccc2ccccc12)c1cc2ccccc2oc1=O` [JFR1, 1-Naphthyl 2-oxo-2H-1-benzopyran-3-carboxylate] here?
Answer: 53%

Question: What about the “selective activity against enzyme: KLK7” value (KLK7) of the same compound?
Answer: KLK7

Question: And the melting point?
Answer: 159 to 160 °C

Question: What does the source list for `O=C(Oc1ccc2ccccc2c1)c1cc2ccccc2oc1=O` [JFR2, 2-Naphthyl 2-oxo-2H-1-benzopyran-3-carboxylate]?
Answer: inhibition at 50 µM (KLK7; [4]): 30%; selective activity against enzyme: KLK7 (KLK7): KLK7; melting point: 166 to 167 °C

Question: What does the source list for `O=C(Oc1ccc(Cl)cc1)c1cc2cc(CF)ccc2oc1=O` [JFR7, 4-Chlorophenyl 6-fluoromethyl-2-oxo-2H-1-benzopyran-3-carboxylate]?
Answer: inhibition at 50 µM (KLK7; [4]): 30%; selective activity against enzyme: KLK7 (KLK7): KLK7; melting point: 216 to 218 °C

Question: Which “total protease activity of skin section (casein-FITC cleavage)” value [3] does the source give for `O=C(Oc1cccc(Cl)c1)c1cc2cc(CBr)ccc2oc1=O` [JFR9, 3-Chlorophenyl 6-bromomethyl-2-oxo-2H-1-benzopyran-3-carboxylate] here?
Answer: decreased significantly

Question: And the IC50 (KLK5; Table A2, read-out: IC50 (nM) KLK5)?
Answer: 0.92 ± 0.07 µM

Question: And the IC50 (KLK7; Table A2, 37° C., 15 min of incubation, pH 8, read-out: IC50 (nM) KLK7)?
Answer: 63.7 ± 1.7 nM

Question: What about the “selective activity against enzyme: KLK7” value (KLK7) of the same compound?
Answer: KLK7

Question: What about the “cytotoxicity, neutral red uptake test (FIG. 5)” value [2] of the same compound?
Answer: No noticeable cytotoxicity

Question: And the IC50 (KLK14; Table A2, read-out: IC50 (nM) KLK14)?
Answer: 2900 ± 100 nM
